The results in this text go back to PubChem BioAssay AID651817 (Broad Institute, 2012).

SMILES strings stand for the structures. The source made the active and inactive calls.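 The calls were made as follows: active = compound whose fitted luminescence drop, meaning cytotoxicity, reaches half effect at most twice its top valid tested dose; inconclusive = flat curve with a moderate drop, or an unreliable fit; inactive = rise instead of drop, flat response, or weaker potency.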

The first test in a line: NIH/3T3 fibroblast cytotoxicity, dose response, cytotoxicity control for T. cruzi growth inhibitor project, cell-based, cherry-pick samples, set 2 (AID 651817). To be noted: NIH/3T3 viability, ATP luminescence (CellTiter-Glo), 90 h; at 3.8 µM (top of the series).
In the case of `C[C@H]1CN([C@@H](C)CO)C(=O)c2cccc(NC(=O)c3nc4ccccc4s3)c2O[C@@H]1CN(C)S(=O)(=O)c1ccccc1`, the activity change, negative = cytotoxicity was 28.8% (inactive).

The test is the same for the next values; noted with them: NIH/3T3 viability, ATP luminescence (CellTiter-Glo), 90 h; at 4.2 µM (top of the series).
Regarding `C[C@@H]1CN([C@H](C)CO)C(=O)c2cccc(NC(=O)Nc3ccc(C(F)(F)F)cc3)c2O[C@@H]1CN(C)Cc1ccc(Cl)c(Cl)c1`, the activity change, negative = cytotoxicity was 37.5% (inactive).

Staying with this test, now noted: NIH/3T3 viability, ATP luminescence (CellTiter-Glo), 90 h; at 19.5 µM (top of the series).
Regarding `Cc1noc(C)c1NC(=O)Nc1cccc2c1O[C@@H](CN(C)S(C)(=O)=O)[C@H](C)CN([C@H](C)CO)C2=O`, the activity change, negative = cytotoxicity was -6.79% (inactive).

In the case of `C[C@@H]1CN([C@H](C)CO)C(=O)c2cccc(NC(=O)c3ccncc3)c2O[C@@H]1CN(C)Cc1ccc(Oc2ccccc2)cc1`, the activity change, negative = cytotoxicity was 14.7% (inactive).

With `C[C@H](CO)N1C[C@H](C)[C@@H](CN(C)S(=O)(=O)c2ccc(Cl)cc2)Oc2c(NC(=O)c3nc4ccccc4s3)cccc2C1=O`, the activity change, negative = cytotoxicity was 14.7% (inactive).

As for `Cc1noc(C)c1NC(=O)Nc1cccc2c1O[C@@H](CN(C)S(C)(=O)=O)[C@@H](C)CN([C@H](C)CO)C2=O`, the activity change, negative = cytotoxicity was 13.3% (inactive).

Turning to `Cc1noc(C)c1NC(=O)Nc1cccc2c1O[C@@H](CN(C)S(C)(=O)=O)[C@H](C)CN([C@@H](C)CO)C2=O`, the activity change, negative = cytotoxicity was -28% (inactive).

In the case of `C[C@H](CO)N1C[C@H](C)[C@@H](CN(C)Cc2ccc(C(F)(F)F)cc2)Oc2c(NC(=O)c3ccncc3)cccc2C1=O`, the activity change, negative = cytotoxicity was -10.8% (inactive).

As to `COc1ccc(CN(C)C[C@@H]2Oc3c(NC(=O)Nc4ccc(C(F)(F)F)cc4)cccc3C(=O)N([C@@H](C)CO)C[C@@H]2C)cc1`, the activity change, negative = cytotoxicity was -25.6% (inactive).

As for `Cc1ccc(S(=O)(=O)Nc2ccc3c(c2)CC(=O)N([C@H](C)CO)C[C@H](C)[C@@H](CN(C)Cc2ccccc2)O3)cc1`, the activity change, negative = cytotoxicity is -0.645% (inactive).

For the compound `Cc1ccc(S(=O)(=O)Nc2ccc3c(c2)CC(=O)N([C@H](C)CO)C[C@H](C)[C@H](CN(C)Cc2ccc(Cl)c(Cl)c2)O3)cc1`, the activity change, negative = cytotoxicity was -1.7% (inactive).

Take `C[C@@H]1CN([C@@H](C)CO)C(=O)c2cccc(NC(=O)c3ccncc3)c2O[C@@H]1CN(C)Cc1ccc(-c2ccccc2)cc1`: the activity change, negative = cytotoxicity was 19.3% (inactive).

With `Cc1noc(C)c1NC(=O)Nc1cccc2c1O[C@@H](CN(C)S(C)(=O)=O)[C@@H](C)CN([C@@H](C)CO)C2=O`, the activity change, negative = cytotoxicity is -35% (inactive).

As for `Cc1noc(C)c1NC(=O)Nc1cccc2c1O[C@H](CN(C)S(C)(=O)=O)[C@@H](C)CN([C@@H](C)CO)C2=O`, the activity change, negative = cytotoxicity was -18.2% (inactive).

For `C[C@@H]1CN([C@H](C)CO)C(=O)c2cccc(NC(=O)c3ccncc3)c2O[C@@H]1CN(C)Cc1ccc(C(F)(F)F)cc1`, the activity change, negative = cytotoxicity is -24.5% (inactive).

Turning to `C[C@H]1CN([C@@H](C)CO)C(=O)Cc2cc(NS(=O)(=O)c3ccccc3)ccc2O[C@@H]1CN(C)S(=O)(=O)c1ccc(Cl)cc1`, the activity change, negative = cytotoxicity was -7.84% (inactive).

As to `C[C@H]1CN([C@@H](C)CO)C(=O)c2cccc(NC(=O)NC3CCCCC3)c2O[C@@H]1CN(C)S(=O)(=O)c1ccc(F)cc1`, the activity change, negative = cytotoxicity was 3.7% (inactive).

With `Cc1ccc(S(=O)(=O)Nc2ccc3c(c2)CC(=O)N([C@H](C)CO)C[C@@H](C)[C@H](CN(C)S(=O)(=O)c2ccc(Cl)cc2)O3)cc1`, the activity change, negative = cytotoxicity is -23.3% (inactive).

With `C[C@H]1CN([C@@H](C)CO)C(=O)c2cccc(NC(=O)c3ccncc3)c2O[C@H]1CN(C)Cc1ccc(C(F)(F)F)cc1`, the activity change, negative = cytotoxicity was -30.7% (inactive).

For the compound `Cc1ccc(S(=O)(=O)Nc2ccc3c(c2)CC(=O)N([C@@H](C)CO)C[C@H](C)[C@H](CN(C)Cc2ccccc2)O3)cc1`, the activity change, negative = cytotoxicity is -4.35% (inactive).

Turning to `C[C@H]1CN([C@@H](C)CO)C(=O)c2cccc(NC(=O)c3ccncc3)c2O[C@@H]1CN(C)Cc1ccc(Oc2ccccc2)cc1`, the activity change, negative = cytotoxicity was -16.8% (inactive).

Take `C[C@@H]1CN([C@@H](C)CO)C(=O)c2cccc(NC(=O)NC3CCCCC3)c2O[C@@H]1CN(C)S(=O)(=O)c1ccc(F)cc1`: the activity change, negative = cytotoxicity was 21.4% (inactive).

For the compound `C[C@@H]1CN([C@H](C)CO)C(=O)c2cccc(NC(=O)c3ccncc3)c2O[C@H]1CN(C)CC1CCCCC1`, the activity change, negative = cytotoxicity is -12.3% (inactive).

Consider `C[C@@H]1CN([C@@H](C)CO)C(=O)c2cccc(NC(=O)c3nc4ccccc4s3)c2O[C@H]1CN(C)S(=O)(=O)c1ccc(Cl)cc1`, for which the activity change, negative = cytotoxicity is -6.73% (inactive).

On to `C[C@@H]1CN([C@H](C)CO)C(=O)c2cccc(NC(=O)c3ccncc3)c2O[C@@H]1CN(C)CC1CCCCC1`, for which the activity change, negative = cytotoxicity is 29% (inactive).

With `C[C@@H]1CN([C@H](C)CO)C(=O)c2cccc(NC(=O)c3nc4ccccc4s3)c2O[C@@H]1CN(C)S(=O)(=O)c1ccc(Cl)cc1`, the activity change, negative = cytotoxicity was 11.5% (inactive).

As for `C[C@H](CO)N1C[C@H](C)[C@@H](CN(C)Cc2ccc(Oc3ccccc3)cc2)Oc2c(NC(=O)c3ccncc3)cccc2C1=O`, the activity change, negative = cytotoxicity was 16.4% (inactive).

Take `C[C@@H]1CN([C@H](C)CO)C(=O)Cc2cc(NS(=O)(=O)c3ccc(F)cc3)ccc2O[C@@H]1CN(C)Cc1ccc(Cl)c(Cl)c1`: the activity change, negative = cytotoxicity was -49.8% (inactive).

Regarding `C[C@@H]1CN([C@@H](C)CO)C(=O)c2cccc(NC(=O)c3nc4ccccc4s3)c2O[C@H]1CN(C)Cc1ccc2c(c1)OCO2`, the activity change, negative = cytotoxicity is -20.2% (inactive).

Regarding `C[C@H]1CN([C@@H](C)CO)C(=O)c2cccc(NC(=O)c3nc4ccccc4s3)c2O[C@H]1CN(C)S(=O)(=O)c1ccc(Cl)cc1`, the activity change, negative = cytotoxicity is 1.37% (inactive).

Regarding `C[C@H](CO)N1C[C@H](C)[C@@H](CN(C)S(=O)(=O)c2ccccc2)Oc2c(NC(=O)c3nc4ccccc4s3)cccc2C1=O`, the activity change, negative = cytotoxicity was -18.8% (inactive).

As to `C[C@H]1CN([C@@H](C)CO)C(=O)c2cccc(NC(=O)c3ccncc3)c2O[C@@H]1CN(C)Cc1ccc2c(c1)OCO2`, the activity change, negative = cytotoxicity was -3.23% (inactive).

In the case of `C[C@H](CO)N1C[C@H](C)[C@@H](CN(C)Cc2ccc3c(c2)OCO3)Oc2c(NC(=O)c3ccncc3)cccc2C1=O`, the activity change, negative = cytotoxicity is -18.8% (inactive).

Consider `Cc1ccc(S(=O)(=O)Nc2ccc3c(c2)CC(=O)N([C@@H](C)CO)C[C@H](C)[C@H](CN(C)S(=O)(=O)c2ccc(Cl)cc2)O3)cc1`, for which the activity change, negative = cytotoxicity was -3.56% (inactive).

With `C[C@@H]1CN([C@H](C)CO)C(=O)c2cccc(NC(=O)c3nc4ccccc4s3)c2O[C@H]1CN(C)Cc1ccc2c(c1)OCO2`, the activity change, negative = cytotoxicity was -10.9% (inactive).

With `C[C@H]1CN([C@@H](C)CO)C(=O)c2cccc(NC(=O)c3ccncc3)c2O[C@H]1CN(C)Cc1ccc(Cl)c(Cl)c1`, the activity change, negative = cytotoxicity is -14.4% (inactive).

For `C[C@H]1CN([C@@H](C)CO)C(=O)c2cccc(NC(=O)c3ccncc3)c2O[C@H]1CN(C)Cc1ccc(-c2ccccc2)cc1`, the activity change, negative = cytotoxicity was 18.2% (inactive).

On to `C[C@@H]1CN([C@H](C)CO)C(=O)Cc2cc(NS(=O)(=O)c3ccc(Cl)cc3)ccc2O[C@H]1CN(C)Cc1ccc2c(c1)OCO2`, for which the activity change, negative = cytotoxicity was -22% (inactive).

For `Cc1noc(C)c1NC(=O)Nc1cccc2c1O[C@H](CN(C)S(C)(=O)=O)[C@H](C)CN([C@@H](C)CO)C2=O`, the activity change, negative = cytotoxicity is 1.29% (inactive).

For `C[C@@H]1CN([C@H](C)CO)C(=O)Cc2cc(NS(=O)(=O)c3ccc(F)cc3)ccc2O[C@H]1CN(C)Cc1ccc(Cl)c(Cl)c1`, the activity change, negative = cytotoxicity was -17.9% (inactive).

For `C[C@H]1CN([C@@H](C)CO)C(=O)c2cccc(NC(=O)c3nc4ccccc4s3)c2O[C@H]1CN(C)Cc1ccc2c(c1)OCO2`, the activity change, negative = cytotoxicity is -36.3% (inactive).

With `C[C@@H]1CN([C@H](C)CO)C(=O)c2cccc(NC(=O)c3ccncc3)c2O[C@H]1CN(C)Cc1ccccc1`, the activity change, negative = cytotoxicity was 9% (inactive).

Turning to `C[C@H](CO)N1C[C@H](C)[C@@H](CN(C)Cc2ccc(Cl)c(Cl)c2)Oc2c(NC(=O)c3ccncc3)cccc2C1=O`, the activity change, negative = cytotoxicity is -21.9% (inactive).

Still in this test, the particulars now being: NIH/3T3 viability, ATP luminescence (CellTiter-Glo), 90 h; at 21 µM (top of the series).
Turning to `C[C@H]1CN([C@@H](C)CO)C(=O)c2cccc(NC(=O)c3ccncc3)c2O[C@@H]1CN(C)Cc1ccccc1`, the activity change, negative = cytotoxicity is 10.2% (inactive).

With `Cc1ccc(S(=O)(=O)N(C)C[C@H]2Oc3ccc(NS(=O)(=O)c4ccc(Cl)cc4)cc3CC(=O)N([C@@H](C)CO)C[C@H]2C)cc1`, the activity change, negative = cytotoxicity is -13.4% (inactive).

Turning to `C[C@H]1CN([C@@H](C)CO)C(=O)c2cccc(NC(=O)c3ccncc3)c2O[C@@H]1CN(C)CC1CCCCC1`, the activity change, negative = cytotoxicity is -19.3% (inactive).

`C[C@H]1CN([C@@H](C)CO)C(=O)c2cccc(NC(=O)c3ccncc3)c2O[C@H]1CN(C)Cc1ccc(Oc2ccccc2)cc1`: the activity change, negative = cytotoxicity is 7.51% (inactive).

For `C[C@H]1CN([C@@H](C)CO)C(=O)c2cccc(NC(=O)Nc3ccc(C(F)(F)F)cc3)c2O[C@@H]1CN(C)Cc1ccc(Cl)c(Cl)c1`, the activity change, negative = cytotoxicity was -12.5% (inactive).

For `Cc1ccc(S(=O)(=O)N(C)C[C@@H]2Oc3ccc(NS(=O)(=O)c4ccc(Cl)cc4)cc3CC(=O)N([C@@H](C)CO)C[C@@H]2C)cc1`, the activity change, negative = cytotoxicity is 11.5% (inactive).

For `Cc1ccc(S(=O)(=O)Nc2ccc3c(c2)CC(=O)N([C@H](C)CO)C[C@H](C)[C@H](CN(C)S(=O)(=O)c2ccc(Cl)cc2)O3)cc1`, the activity change, negative = cytotoxicity was -27.3% (inactive).

As to `Cc1ccc(S(=O)(=O)Nc2ccc3c(c2)CC(=O)N([C@@H](C)CO)C[C@@H](C)[C@@H](CN(C)Cc2ccc(Cl)c(Cl)c2)O3)cc1`, the activity change, negative = cytotoxicity was -67.6% (inactive).

In the case of `Cc1ccc(S(=O)(=O)N(C)C[C@H]2Oc3ccc(NS(=O)(=O)c4ccccc4)cc3CC(=O)N([C@@H](C)CO)C[C@H]2C)cc1`, the activity change, negative = cytotoxicity is -30.2% (inactive).
